Where a name gives a salt, the structure may show the parent alone.
Assays:
[1] = system: patients with temporary sleep disturbance; experiment: Clinical trial, Karolinska 9-point sleepiness scale; assay type: in vivo, human
Description: (§1) The efficacy of triprolidine in enabling a patient to feel refreshed or alert upon waking after taking triprolidine prior to sleeptime was investigated using patients with a history of sleep disorders and utilising triprolidine prepared in accordance with example 3.
(a) Karolinska scale as defined in: Int. J. Neuroscience 52 29-37 (1990); and
(§2) A multiple-dose, placebo-controlled, parallel-group, double-blind, randomised study investigating the effects of 2.5 mg and 5 mg triprolidine in patients with temporary sleep disturbance.
(§3) Male and Female candidates aged 18 years and above were recruited to one of five research centres by means of local advertising. Candidates were screened by means of a telephone questionnaire and selected candidates invited for interview at the research centre. Key inclusion criteria used to select candidates for the study were:
(§4) The candidates came to the research centre on Thursday or Friday and were fitted with a wrist actimeter (AW4 from Cambridge Technology) to establish a baseline measure for SDI and were provided with diary cards to record subjective assessments for the Loughborough Sleep Log and the Karolinska Sleepiness Scale. They returned to the investigational site on the Monday and were issued with the study compositions (2.5 mg triprolidine, 5 mg triprolidine or placebo). The investigator telephoned a central randomisation centre where the subject was randomised to a particular treatment group using a dynamic balanced randomisation algorithm. The subject was given three doses of their allocated study medication and instructed to take a single dose of two tablets 20 minutes before they intended to go to sleep on three consecutive evenings, commencing that evening. The diary cards for the Loughborough Sleep Log and Karolinska Sleepiness Scale were asked to be completed on waking.
A daytime sleepiness assessment was also made 20 minutes, 2 hours and 4 hours after awaking on the Karolinska 9-point scale, i.e. the sleepiness scale.
Karolinska's sleepiness scale is set out below and the results for placebo, 2.5 and 5.0 mg doses of triprolidine are shown in tables 4 and 5. Table 4 relates to the number of individuals experiencing scales 1, 2 or 3 on the Karolinska scale and table 5 relates to the number of individuals experiencing scales 8 and 9.
Karolinska Sleepiness Scale
This will be completed 20 minutes after awakening and then at 2 hours and 4 hours following the first assessment on days 5, 6, 7 and 8.

[2] = system: volunteers; conditions: single doses 10 mg or 20 mg sustained release at bedtime; cited from earlier work
[3] = system: patients with temporary sleep disturbance; experiment: Clinical trial, Loughborough sleep log: feeling of refreshedness 15 minutes after waking (5-point scale); assay type: in vivo, human
Description: as §1, §2, §3, §4
Candidates were required to complete a questionnaire 15 minutes after awaking on the feeling of refreshedness assessed on a 5-point scale, the Loughborough sleep log.
(§5) In the trial, patients were tested during a seven day period and the results have been analysed for a mean of three days in the middle of this period. The effects of triprolidine at dose level 2.5 mg and 5.0 mg are compared with placebo in table 1.
Generally the treatment groups were well balanced in terms of the demographic data. Unless otherwise mentioned all group data was analysed using ANOVA. In two cases, namely, how the patient felt 15 minutes after awakening in the Loughborough Sleep Log and the Karolinska Sleepiness Scale at 20 minutes, the two variables were analysed using ANCOVA by including the weekend and the mean of Friday/Saturday/Sunday night as a covariate. The method was a closed test procedure (Williams' test). Each of the tests were to be conducted at the 5% level. The analysis of the secondary endpoints was similarly conducted using the Student's t-tests on parameter estimates taken from the analysis of variance model presented above.
(§6) The following is a copy of the “Loughborough sleep log questionnaire” which was used by patients in the study and provided the data for datasets a and b in table 1

[4] = system: patients with temporary sleep disturbance; experiment: Clinical trial, Loughborough sleep log: last night I slept (quality of sleep, 5-point scale); assay type: in vivo, human
Description: as §1, §2, §3, §4, §5, §6

**Q.** What does the source list for Cc1ccc(/C(=C\CN2CCCC2)c2ccccn2)cc1 [TRP.HCl.H2O]?
**A.** percentage of people feeling alert, very alert or extremely alert on waking versus placebo ([1]; 2.5 mg): greater percentage; percentage of people feeling sleepy, some effort, or very sleepy, great effort to keep awake, on waking versus placebo ([1]; 2.5 mg): lower percentage; residual hangover effects/morning grogginess ([1]; 2.5 mg): no evidence of residual hangover effects/morning grogginess; I feel (i) sleepy, some effort or (ii) very sleepy, a great effort to keep awake (Karolinska scales 8 and 9) ([1]; 2.5 mg, Monday): 11.5%; I feel extremely alert, very alert or alert (Karolinska scales 1, 2 or 3) ([1]; 2.5 mg, Monday): 21.3%; I feel (i) sleepy, some effort or (ii) very sleepy, a great effort to keep awake (Karolinska scales 8 and 9) ([1]; 2.5 mg, Tuesday): 13.1%; I feel extremely alert, very alert or alert (Karolinska scales 1, 2 or 3) ([1]; 2.5 mg, Tuesday): 21.3%; I feel (i) sleepy, some effort or (ii) very sleepy, a great effort to keep awake (Karolinska scales 8 and 9) ([1]; 2.5 mg, Wednesday): 6.5%; I feel extremely alert, very alert or alert (Karolinska scales 1, 2 or 3) ([1]; 2.5 mg, Wednesday): 21.0%; I feel (i) sleepy, some effort or (ii) very sleepy, a great effort to keep awake (Karolinska scales 8 and 9) ([1]; 5 mg, Monday): 12.5%; I feel extremely alert, very alert or alert (Karolinska scales 1, 2 or 3) ([1]; 5 mg, Monday): 6.3%; I feel (i) sleepy, some effort or (ii) very sleepy, a great effort to keep awake (Karolinska scales 8 and 9) ([1]; 5 mg, Tuesday): 17.5%; I feel extremely alert, very alert or alert (Karolinska scales 1, 2 or 3) ([1]; 5 mg, Tuesday): 9.5%; I feel (i) sleepy, some effort or (ii) very sleepy, a great effort to keep awake (Karolinska scales 8 and 9) ([1]; 5 mg, Wednesday): 12.7%; I feel extremely alert, very alert or alert (Karolinska scales 1, 2 or 3) ([1]; 5 mg, Wednesday): 17.5%; daytime sleepiness ([1]; either dose (2.5 mg or 5 mg)): lack of daytime sleepiness; sleep onset latency (time required to fall asleep) compared with placebo [2]: did not significantly alter; total sleep time compared with placebo [2]: no effect; wakefulness during sleep compared with placebo [2]: no effect; 15 mins after awaking (1- very refreshed 5- very tired), Mean ([3]; 2.5 mg, Mean of 3): 3.24; 15 mins after awaking (1- very refreshed 5- very tired), Mean ([3]; 2.5 mg, Mon): 3.33; Awoke Very Refreshed or Refreshed Responses ([3]; 2.5 mg, Monday): 23%; 15 mins after awaking (1- very refreshed 5- very tired), Mean ([3]; 2.5 mg, Tues): 3.23; Awoke Very Refreshed or Refreshed Responses ([3]; 2.5 mg, Tuesday): 23%; 15 mins after awaking (1- very refreshed 5- very tired), Mean ([3]; 2.5 mg, Wed): 3.18; Awoke Very Refreshed or Refreshed Responses ([3]; 2.5 mg, Wednesday): 25.8%; feeling of refreshedness 15 minutes after waking versus placebo ([3]; 2.5 mg, p<0.05): more refreshed than those on placebo; 15 mins after awaking (1- very refreshed 5- very tired), Mean ([3]; 5 mg, Mean of 3): 3.59; 15 mins after awaking (1- very refreshed 5- very tired), Mean ([3]; 5 mg, Mon): 3.72; Awoke Very Refreshed or Refreshed Responses ([3]; 5 mg, Monday): 11.5%; 15 mins after awaking (1- very refreshed 5- very tired), Mean ([3]; 5 mg, Tues): 3.56; Awoke Very Refreshed or Refreshed Responses ([3]; 5 mg, Tuesday): 8.2%; 15 mins after awaking (1- very refreshed 5- very tired), Mean ([3]; 5 mg, Wed): 3.54; Awoke Very Refreshed or Refreshed Responses ([3]; 5 mg, Wednesday): 14.8%; last night I slept (1- extremely well, 5- extremely badly), Mean ([4]; 2.5 mg, Mean of 3): 2.73; last night I slept (1- extremely well, 5- extremely badly), Mean ([4]; 2.5 mg, Mon): 2.67; Last Night I Slept Extremely Well or Very Well Responses ([4]; 2.5 mg, Monday): 41.4%; last night I slept (1- extremely well, 5- extremely badly), Mean ([4]; 2.5 mg, Tues): 2.71; Last Night I Slept Extremely Well or Very Well Responses ([4]; 2.5 mg, Tuesday): 41.8%; last night I slept (1- extremely well, 5- extremely badly), Mean ([4]; 2.5 mg, Wed): 2.81; Last Night I Slept Extremely Well or Very Well Responses ([4]; 2.5 mg, Wednesday): 37.9%; last night I slept (1- extremely well, 5- extremely badly), Mean ([4]; 5 mg, Mean of 3): 2.69; last night I slept (1- extremely well, 5- extremely badly), Mean ([4]; 5 mg, Mon): 2.49; Last Night I Slept Extremely Well or Very Well Responses ([4]; 5 mg, Monday): 50.9%; last night I slept (1- extremely well, 5- extremely badly), Mean ([4]; 5 mg, Tues): 2.93; Last Night I Slept Extremely Well or Very Well Responses ([4]; 5 mg, Tuesday): 28.8%; last night I slept (1- extremely well, 5- extremely badly), Mean ([4]; 5 mg, Wed): 2.64; Last Night I Slept Extremely Well or Very Well Responses ([4]; 5 mg, Wednesday): 39.3%

Source: patent US20040029927A1, “Use of a compound in providing refreshedness on waking and a method for the treatment of grogginess therewith” (The Boots Company PLC, priority 2001, published 2004)
